Data published in paper PMC7918612, “Novel Inhibitors of Nicotinamide-N-Methyltransferase for the Treatment of Metabolic Disorders” (Molecules, 2021).
Where two headings read alike, the source gives them in different places.

Assays:
[1] = tested on: mice with diet-induced obesity; conditions: cited from earlier work
[2] = molecular target: T1, mouse NNMT (Mus musculus, UniProt O55239); experiment: Fluorescence-based NNMT enzymatic assay (mouse enzyme); assay type: biochemical; conditions: for IC50: read-out: mNNMT IC50
T1 sequence (O55239 1-264): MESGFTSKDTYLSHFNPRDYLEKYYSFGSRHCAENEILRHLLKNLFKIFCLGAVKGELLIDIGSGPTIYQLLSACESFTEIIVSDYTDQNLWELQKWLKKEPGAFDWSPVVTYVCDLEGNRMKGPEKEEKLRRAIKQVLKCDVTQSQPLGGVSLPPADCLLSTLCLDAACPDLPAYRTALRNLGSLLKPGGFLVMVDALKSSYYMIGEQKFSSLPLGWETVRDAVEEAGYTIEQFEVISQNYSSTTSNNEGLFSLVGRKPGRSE
Description: (§1) Experimental Procedures S2: Fluorescence-based NNMT enzymatic assay
(§2) NNMT activity was measured by fluorescence based assay. The product MNA formed in the reaction reacts with acetophenone in the presence of KOH and formic acid and forms a fluorescent product 2, 7- naphthyridine. The fluorescence intensity measured with excitation at 375nm and emission at 430nm. Inhibitors were screened using human, mouse and monkey NNMT enzymes. Different concentrations of inhibitors were pre-incubated along with 5ng/well of human NNMT enzyme and 3.42ng/well of mouse NNMT enzyme for 30 minutes at room temperature. Reaction was initiated by addition of SAM and nicotinamide mixture (7µM, 20µM, 8µM SAM and 6µM, 20µM, 9µM nicotinamide for human, mouse and monkey NNMT assays respectively) and incubated for 60 minutes at 37°C. The final assay reaction mixture contained a buffer of 100mM Tris Hcl pH 7.5, 0.04% BSA, 2mM Dithiothreitol and 1% DMSO. The reaction was terminated by addition of Ethanol: Acetophenone mix (75% ethanol: 25% Acetophenone) and 5M potassium Hydroxide prepared with 50% Ethanol. The reaction was incubated for 15 minutes followed by addition of 100µl of 60% formic acid and further incubation for 60 minutes at room temperature. A fluorescent product 2, 7- naphthyridine was measured in a Tecan reader with excitation at 375nm and emission at 430nm. The IC50 values were determined by fitting the inhibition curves (percent inhibition versus inhibitor concentration) using a four parametric sigmoidal dose response in graph pad prism. […]

[3] = molecular target: T2, human NNMT (Homo sapiens, UniProt P40261); experiment: Fluorescence-based NNMT enzymatic assay (human enzyme); assay type: biochemical; conditions: for IC50: read-out: hNNMT IC50; for reduction in potency on hNNMT: relative to (1)
T2 sequence (P40261 1-264): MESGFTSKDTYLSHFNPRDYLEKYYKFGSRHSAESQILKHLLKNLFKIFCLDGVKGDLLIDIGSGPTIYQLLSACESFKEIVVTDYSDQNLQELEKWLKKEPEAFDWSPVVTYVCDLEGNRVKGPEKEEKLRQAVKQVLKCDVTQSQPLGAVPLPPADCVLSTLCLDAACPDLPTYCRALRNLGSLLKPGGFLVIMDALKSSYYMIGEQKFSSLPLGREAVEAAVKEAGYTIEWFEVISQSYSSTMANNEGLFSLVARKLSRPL
Description: as §1, §2

[4] = Metabolic stability in rat liver microsomes; assay type: in vitro ADME; conditions: read-out: RLM % Remaining at 1 h
[5] = Metabolic stability in mouse liver microsomes; assay type: in vitro ADME; conditions: for remaining at 1 h: mouse liver microsomes, read-out: MLM % Remaining at 1 h; for MLM: Table 3, mouse liver microsome data, head HLM/MLM without unit
Description: (§3) Experimental Procedures S3: Metabolic stability in human and mouse liver microsomes
(§4) These profiling studies were carried out as described in Mullangi R. et. al. Preclinical assessment of
(§5) ulixertinib, a novel ERK1/2 inhibitor, ADMET & DMPK, 2017, 212-223;

[6] = Metabolic stability in human liver microsomes; assay type: in vitro ADME; set-up: HLM: unit not given beside the values; conditions: for remaining at 1 h: human liver microsomes, read-out: HLM % Remaining at 1 h; for HLM: Table 3, human liver microsome data, head HLM/MLM without unit
Description: as §3, §4, §5

[7] = Metabolic stability in liver microsomes (species not specified); assay type: in vitro ADME
Description: as §3, §4, §5

[8] = tested on: NNMT; conditions: substrate of NNMT; cited from earlier work

| IC50 [2] | hNNMT potency, in words [3] | IC50 [3] | remaining at 1 h [5] | remaining at 1 h [6] | Compound | also measured |
| --- | --- | --- | --- | --- | --- | --- |
| – | – | – | – | – | 5-amino-1-methylquinoline | body weight [1]: reduced body weight; glucose tolerance [1]: improved glucose tolerance; insulin sensitivity [1]: higher insulin sensitivity |
| 0.8 nM | nanomolar potency | 8 nM | – | – | COc1ccc(-c2cn(C[C@](C)(O)C(=O)N3CCN(c4cccc5cnccc45)CC3)nc2C)cc1 (stereo in doubt) [Compound 12] | mNNMT potency, in words [2]: nanomolar potency |
| – | – | – | – | – | COc1ccc(C(N)=O)cn1 [6-methoxynicotinamide] | body weight [1]: reduced body weight; glucose tolerance [1]: improved glucose tolerance; insulin sensitivity [1]: higher insulin sensitivity |
| 840 nM | – | 260 nM | – | – | Cc1nn(CC(C)(O)C(=O)N2CCN(c3cccc4cnccc34)CC2)cc1-c1ccccc1 (stereo not drawn) [Compound 1] | – |
| 500 nM | – | 200 nM | – | – | CCn1c(=N)n2c3c(cccc31)CCC2 [Compound 3] | mode of inhibition ([3]; competition with substrates nicotinamide / SAM): competitive inhibitors either of nicotinamide alone |
| 2200 nM | – | 1670 nM | – | – | Cc1nn(CCC(=O)N2CCN(c3cccc4cnccc34)CC2)cc1-c1ccccc1 [Compound 6] | reduction in potency on mouse NMMT (mNNMT) ([2]; relative to (1)): 2.5 fold; reduction in potency on hNNMT [3]: six-fold reduction |
| – | completely lost hNNMT activity | > 10000 nM | < 5% | < 5% | Cc1nn(CC(C)(O)C(=O)N2CCN(c3ccc4cnccc4c3)CC2)cc1-c1cccc(F)c1 (stereo not drawn) [Compound 8] | remaining at 1 h [4]: < 5% |
| 2430 nM | – | 880 nM | – | – | Cc1nn(CC(O)C(=O)N2CCN(c3cccc4cnccc34)CC2)cc1-c1cccc(F)c1.O=C(O)C(F)(F)F (stereo not drawn) [Compound 9] | reduction in potency on hNNMT [3]: three-fold reduction |
| > 3000 nM | – | 290 nM | < 5% | 7% | Cc1nn(CC(C)(O)C(=O)N2CCN(c3cccc4cnccc34)CC2)cc1-c1ccc(F)c(F)c1 (stereo not drawn) [Compound 10] | – |
| 1870 nM | retains potency | 200 nM | < 5% | < 5% | Cc1nn(CC(C)(O)C(=O)N2CCN(c3c(F)ccc4cnccc34)CC2)cc1-c1cccc(F)c1 (stereo not drawn) [Compound 11] | mNNMT potency, in words [2]: retains potency |
| 3480 nM | – | 490 nM | < 5% | < 5% | Cc1nn(CC(C)(O)C(=O)N2CCN(c3c(C)sc4cnccc34)CC2)cc1-c1cccc(F)c1 (stereo not drawn) [Compound 14] | – |
| 5100 nM | – | 790 nM | < 5% | < 5% | Cc1nn(CC(C)(O)C(=O)N2CCN(c3cccc4cnncc34)CC2)cc1-c1cccc(F)c1 (stereo not drawn) [Compound 15] | remaining at 1 h [4]: < 5% |
| 1630 nM | – | 1100 nM | < 5% | < 5% | Cc1nn(CC(C)(O)C(=O)N2CCN(c3cccc4cncnc34)CC2)cc1-c1cccc(F)c1 (stereo not drawn) [Compound 16] | remaining at 1 h [4]: < 5% |
| – | – | > 3000 nM | 8% | 27% | Cc1nn(CC(C)(O)C(=O)N2CCN(c3cnc4cnccn34)CC2)cc1-c1cccc(F)c1 (stereo not drawn) [Compound 17] | remaining at 1 h [4]: < 5% |
| – | – | > 30000 nM | 30% | 35% | Cc1nn(CC(C)(O)C(=O)N2CCN(c3ccc4c(cnn4Cc4ccccc4)c3)CC2)cc1-c1cccc(F)c1 (stereo not drawn) [Compound 18] | remaining at 1 h [4]: < 5% |
| – | – | > 10000 nM | – | – | Cc1nn(CC(C)(O)C(=O)N2CCN(c3ccc4[nH]ncc4c3)CC2)cc1-c1cccc(F)c1 (stereo not drawn) [Compound 19] | – |

| IC50 [2] | hNNMT potency, in words [3] | IC50 [3] | remaining at 1 h [5] | remaining at 1 h [6] | Compound | also measured |
| --- | --- | --- | --- | --- | --- | --- |
| – | – | > 3000 nM | < 5% | 18% | Cc1nn(CC(C)(O)C(=O)N2CCN(c3cccc4[nH]ncc34)CC2)cc1-c1cccc(F)c1 (stereo not drawn) [Compound 20] | – |
| 1640 nM | reasonable potency | 250 nM | < 5% | 20% | Cc1nn(CC(C)(O)C(=O)N2CCN(c3cccc4[nH]c(=O)ccc34)CC2)cc1-c1cccc(F)c1 (stereo not drawn) [Compound 21] | metabolic stability, in words [7]: did not improve; remaining at 1 h [4]: < 5% |
| – | not active | > 30000 nM | < 5% | 16% | Cc1nn(CC(C)(O)C(=O)N2CCN(c3cccc4c(=O)[nH]ccc34)CC2)cc1-c1cccc(F)c1 (stereo not drawn) [Compound 22] | remaining at 1 h [4]: 31% |
| 1000 nM | – | 150 nM | < 5% | < 5% | Cc1nn(CC(C)(O)C(=O)N2CCN(c3cccc4c3ccc(=O)n4C)CC2)cc1-c1cccc(F)c1 (stereo not drawn) [Compound 23] | metabolic stability, in words [7]: did not improve |
| – | – | > 10000 nM | < 5% | < 5% | Cc1nn(CC(C)(O)C(=O)N2CCN(c3cccc4c3OCC(=O)N4)CC2)cc1-c1cccc(F)c1 (stereo not drawn) [Compound 24] | – |
| – | – | – | – | – | Cc1nn(CC(C)(O)C(=O)N2CCC(c3cccc4[nH]c(=O)ccc34)CC2)cc1-c1cccc(F)c1 (stereo not drawn) [Compound 25] | MLM [5]: < 5; IC50 ([2]; Table 3): > 3000 nM; reduction in mNNMT potency ([2]; compared to (21)): two-fold reduction; HLM [6]: 17; IC50 ([3]; Table 3): 750 nM |
| – | substantial loss of potency | – | – | – | Cc1nn(CC(C)(O)C(=O)N2CCC(C3=CC=CC4NC(=O)C=CC34)C2)cc1-c1cccc(F)c1 (stereo not drawn) [Compound 26] | MLM [5]: < 5; HLM [6]: 12; IC50 ([3]; Table 3): > 10000 nM |
| – | substantial loss of potency | – | – | – | Cc1nn(CC(C)(O)C(=O)N2CC(c3cccc4[nH]c(=O)ccc34)C2)cc1-c1cccc(F)c1 (stereo not drawn) [Compound 27] | IC50 ([3]; Table 3): > 30000 nM |
| – | substantial loss of potency | – | – | – | Cc1nn(CC(C)(O)C(=O)N2CCCN(c3cccc4[nH]c(=O)ccc34)CC2)cc1-c1cccc(F)c1 (stereo not drawn) [Compound 28] | IC50 ([2]; Table 3): > 30000 nM; IC50 ([3]; Table 3): > 3000 nM |
| – | – | – | – | – | Cc1nn(CC(C)(O)C(=O)N2CC(c3cccc4cnccc34)C2)cc1-c1cccc(F)c1 (stereo not drawn) [Compound 29] | MLM [5]: <5/<5; HLM [6]: <5/<5; IC50 ([3]; Table 3): > 30000 nM |
| – | inactive | – | – | – | Cc1nn(CC(C)(O)C(=O)N2CCC(O)(c3cccc4[nH]c(=O)ccc34)CC2)cc1-c1cccc(F)c1 (stereo not drawn) [Compound 30] | MLM [5]: <5/<5; HLM [6]: <5/<5; IC50 ([3]; Table 3): > 10000 nM |
| – | – | – | – | – | Cc1nn(CC(C)(O)C(=O)N2CCC(O)(c3cccc4cnccc34)CC2)cc1-c1cccc(F)c1 (stereo not drawn) [Compound 31] | metabolic stability, in words [7]: insufficient for further profiling; MLM [5]: < 5; IC50 ([2]; Table 3): 560 nM; HLM [6]: 23; IC50 ([3]; Table 3): 110 nM; increase in potency ([3]; comparator not stated): three-fold increase |
| – | completely lost NNMT inhibition | – | – | – | Cc1nn(CC(C)(O)C(=O)N2CCC(O)(c3cccc4c[n+]([O-])ccc34)CC2)cc1-c1cccc(F)c1 (stereo not drawn) [Compound 32] | MLM [5]: 32; metabolic stability, in words ([5]; mice): improved metabolic stability; HLM [6]: 72; metabolic stability, in words ([6]; humans): improved metabolic stability; IC50 ([3]; Table 3): > 30000 nM |
| 3000 nM | – | 2500 nM | – | – | CC(O)(C/N=c1/sc2cccc3c2n1CCC3)C(=O)N1CCN(c2cccc3cnccc23)CC1 (stereo not drawn) [Compound 33] | – |
| – | – | – | – | – | C[S+](CC[C@H](N)C(=O)[O-])C[C@H]1O[C@@H](n2cnc3c(N)ncnc32)[C@H](O)[C@@H]1O (stereo partly drawn) [SAM, S-adenosyl-methionine] | Km [8]: 1.8 µM |
| – | – | – | – | – | NC(=O)c1cccnc1 [nicotinamide] | Km [8]: 400 µM |
